Assay results as given in ChEMBL document CHEMBL1201861, “Genomics of Drug Sensitity in Cancer screening data, Wellcome Trust Sanger Institute”.

How the values were obtained:
Experiment in all cases: cells
[1] = tested on: HGC-27; type: functional, cell-based, Homo sapiens; conditions: Homo sapiens, HGC-27;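 further: growth inhibition of human HGC-27 cells, read out in a cell viability assay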
Description: SANGER: Inhibition of human HGC-27 cell growth in a cell viability assay.

[2] = tested on: HuTu80; type: functional, cell-based, Homo sapiens, HUTU-80; conditions: Homo sapiens, HuTu80;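 further: growth inhibition of HuTu80 human cells, determined with a cell viability readout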
Description: SANGER: Inhibition of human HUTU-80 cell growth in a cell viability assay.

[3] = tested on: ML-2; type: functional, cell-based; conditions: Homo sapiens;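 further: growth inhibition of ML-2 cells, measured with a cell viability readout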
Description: SANGER: Inhibition of human ML-2 cell growth in a cell viability assay.

[4] = tested on: CAKI-1; type: functional, cell-based, Homo sapiens; conditions: Homo sapiens, CAKI-1;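 further: growth inhibition of CAKI-1 cells, measured by a cell viability assay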
Description: SANGER: Inhibition of human CAKI-1 cell growth in a cell viability assay.

[5] = tested on: HOP-62; type: functional, cell-based, Homo sapiens; conditions: Homo sapiens, HOP-62;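 further: cell growth inhibition determined with a viability assay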
Description: SANGER: Inhibition of human HOP-62 cell growth in a cell viability assay.

[6] = tested on: A-427; type: functional, cell-based, Homo sapiens; conditions: Homo sapiens, A-427;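 further: growth inhibition of human A-427 cells, read out by a cell viability assay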
Description: SANGER: Inhibition of human A427 cell growth in a cell viability assay.

[7] = tested on: J82; type: functional, cell-based; conditions: Homo sapiens;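 further: growth inhibition of J82 cells, read out with a cell viability assay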
Description: SANGER: Inhibition of human J82 cell growth in a cell viability assay.

[8] = tested on: HLE; type: functional, cell-based, Homo sapiens; conditions: Homo sapiens, HLE;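 further: growth inhibition of human HLE cells, read out by a cell viability assay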
Description: SANGER: Inhibition of human HLE cell growth in a cell viability assay.

[9] = tested on: TGBC24TKB; type: functional, cell-based, Homo sapiens; conditions: Homo sapiens, TGBC24TKB;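 further: growth inhibition of human TGBC24TKB cells, read out with a cell viability assay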
Description: SANGER: Inhibition of human TGBC24TKB cell growth in a cell viability assay.

[10] = tested on: NCI-H661; type: functional, cell-based, Homo sapiens; conditions: Homo sapiens, NCI-H661;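 further: cell viability assay read-out, IC50 being the concentration that inhibits growth of the cells by half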
Description: SANGER: Inhibition of human NCI-H661 cell growth in a cell viability assay.

[11] = tested on: HCC1937; type: functional, cell-based, Homo sapiens; conditions: Homo sapiens, HCC1937;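 further: growth inhibition measured with a cell viability read-out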
Description: SANGER: Inhibition of human HCC1937 cell growth in a cell viability assay.

[12] = tested on: LB373-MEL-D; type: functional, cell-based, Homo sapiens; conditions: Homo sapiens, LB373-MEL-D;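 further: growth inhibition of the cell line, read out in a cell viability assay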
Description: SANGER: Inhibition of human LB373-MEL-D cell growth in a cell viability assay.

[13] = tested on: KMOE-2; type: functional, cell-based; conditions: Homo sapiens;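 further: growth inhibition of human KMOE-2 cells, read out with a cell viability assay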
Description: SANGER: Inhibition of human KMOE-2 cell growth in a cell viability assay.

[14] = tested on: NCI-H1770; type: functional, cell-based; conditions: Homo sapiens;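 further: growth inhibition of NCI-H1770 cells determined with a viability readout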
Description: SANGER: Inhibition of human NCI-H1770 cell growth in a cell viability assay.

[15] = tested on: PSN1; type: functional, cell-based, Homo sapiens; conditions: Homo sapiens, PSN1;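 further: suppression of growth of human PSN1 cells, read out by a cell viability assay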
Description: SANGER: Inhibition of human PSN1 cell growth in a cell viability assay.

[16] = tested on: EW-1; type: functional, cell-based, Homo sapiens; conditions: Homo sapiens, EW-1;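 further: growth inhibition of the human EW-1 cell line, read out by a cell viability assay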
Description: SANGER: Inhibition of human EW-1 cell growth in a cell viability assay.

[17] = tested on: NCI-H1993; type: functional, cell-based, Homo sapiens; conditions: Homo sapiens, NCI-H1993;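 further: growth inhibition of the cancer cell line, assessed with a cell viability assay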
Description: SANGER: Inhibition of human NCI-H1993 cell growth in a cell viability assay.

[18] = tested on: PC-14; type: functional, cell-based, Homo sapiens; conditions: Homo sapiens, PC-14;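 further: cell viability assay measuring inhibition of PC-14 cell growth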
Description: SANGER: Inhibition of human PC-14 cell growth in a cell viability assay.

[19] = tested on: MDA-MB-415; type: functional, cell-based; conditions: Homo sapiens
[20] = tested on: P12-Ichikawa; type: functional, cell-based; conditions: Homo sapiens
[21] = tested on: COLO-320-HSR; type: functional, cell-based; conditions: Homo sapiens;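 further: growth inhibition of COLO-320-HSR cells, determined with a cell viability assay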
Description: SANGER: Inhibition of human COLO-320-HSR cell growth in a cell viability assay.

[22] = tested on: ES1; type: functional, cell-based, Homo sapiens; conditions: Homo sapiens, ES1;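 further: growth inhibition of ES1 cells, read out with a cell viability assay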
Description: SANGER: Inhibition of human ES1 cell growth in a cell viability assay.

[23] = tested on: EFO-27; type: functional, cell-based, Homo sapiens; conditions: Homo sapiens, EFO-27;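 further: growth inhibition of EFO-27 cells, read out with a cell viability assay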
Description: SANGER: Inhibition of human EFO-27 cell growth in a cell viability assay.

[24] = tested on: HCC2218; type: functional, cell-based; conditions: Homo sapiens;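 further: cell viability assay read-out, with IC50 given as the concentration that inhibits growth of the cell line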
Description: SANGER: Inhibition of human HCC2218 cell growth in a cell viability assay.

[25] = tested on: NCI-H1395; type: functional, cell-based, Homo sapiens; conditions: Homo sapiens, NCI-H1395;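 further: cell viability assay read-out quantifying reduced proliferation of human NCI-H1395 cells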
Description: SANGER: Inhibition of human NCI-H1395 cell growth in a cell viability assay.

[26] = tested on: TE-9; type: functional, cell-based, Homo sapiens; conditions: Homo sapiens, TE-9;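 further: cell growth inhibition, measured with a cell viability readout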
Description: SANGER: Inhibition of human TE-9 cell growth in a cell viability assay.

[27] = tested on: DSH1; type: functional, cell-based, Homo sapiens; conditions: Homo sapiens, DSH1;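 further: growth inhibition of human DSH1 cells, measured with a cell viability readout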
Description: SANGER: Inhibition of human DSH1 cell growth in a cell viability assay.

[28] = tested on: Lu-65; type: functional, cell-based; conditions: Homo sapiens;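 further: growth inhibition of Lu-65 cancer cells, read out by a cell viability assay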
Description: SANGER: Inhibition of human LU-65 cell growth in a cell viability assay.

[29] = tested on: KU-19-19; type: functional, cell-based, Homo sapiens; conditions: Homo sapiens, KU-19-19
Description: SANGER: Inhibition of human KU-19-19 cell growth in a cell viability assay.

[30] = tested on: SNU1; type: functional, cell-based; conditions: Homo sapiens;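 further: growth inhibition of human NCI-SNU-1 cells, measured with a cell viability assay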
Description: SANGER: Inhibition of human NCI-SNU-1 cell growth in a cell viability assay.

[31] = tested on: NEC8; type: functional, cell-based, Homo sapiens; conditions: Homo sapiens, NEC8;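 further: growth inhibition of human NEC8 cells, read out by a cell viability assay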
Description: SANGER: Inhibition of human NEC8 cell growth in a cell viability assay.

[32] = tested on: EW-11; type: functional, cell-based, Homo sapiens; conditions: Homo sapiens, EW-11;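 further: growth inhibition of human EW-11 cells, measured with a cell viability assay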
Description: SANGER: Inhibition of human EW-11 cell growth in a cell viability assay.

[33] = tested on: SAS; type: functional, cell-based, Homo sapiens; conditions: Homo sapiens, SAS;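 further: growth inhibition of SAS cells, read out with a cell viability assay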
Description: SANGER: Inhibition of human SAS cell growth in a cell viability assay.

[34] = tested on: KY821; type: functional, cell-based; conditions: Homo sapiens;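 further: growth inhibition of human KY821 cells, read out by a cell viability assay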
Description: SANGER: Inhibition of human KY821 cell growth in a cell viability assay.

[35] = tested on: EOL1; type: functional, cell-based; conditions: Homo sapiens;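 further: growth inhibition of EoL-1 cells, read out by a cell viability assay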
Description: SANGER: Inhibition of human EoL-1-cell cell growth in a cell viability assay.

[36] = tested on: SW 962; type: functional, cell-based, Homo sapiens; conditions: Homo sapiens, SW 962;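 further: growth inhibition of human SW962 cells, read out by a cell viability assay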
Description: SANGER: Inhibition of human SW962 cell growth in a cell viability assay.

[37] = tested on: SK-MEL-1; type: functional, cell-based; conditions: Homo sapiens;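 further: growth inhibition of human SK-MEL-1 cells, read out by a cell viability assay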
Description: SANGER: Inhibition of human SK-MEL-1 cell growth in a cell viability assay.

[38] = tested on: PA-1; type: functional, cell-based, Homo sapiens; conditions: Homo sapiens, PA-1;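 further: IC50 for suppression of PA-1 cell proliferation, determined with a cell viability read-out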
Description: SANGER: Inhibition of human PA-1 cell growth in a cell viability assay.

[39] = tested on: LS-1034; type: functional, cell-based, Homo sapiens; conditions: Homo sapiens, LS-1034
Description: SANGER: Inhibition of human LS-1034 cell growth in a cell viability assay.

[40] = tested on: CGTH-W-1; type: functional, cell-based, Homo sapiens; conditions: Homo sapiens, CGTH-W-1;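 further: growth inhibition of human CGTH-W-1 cells measured by cell viability assay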
Description: SANGER: Inhibition of human CGTH-W-1 cell growth in a cell viability assay.

[41] = tested on: OVCAR-8; type: functional, cell-based, Homo sapiens; conditions: Homo sapiens, OVCAR-8;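 further: growth inhibition of human OVCAR-8 cells, read out by a cell viability assay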
Description: SANGER: Inhibition of human OVCAR-8 cell growth in a cell viability assay.

[42] = tested on: 786-0; type: functional, cell-based, Homo sapiens; conditions: Homo sapiens
Description: SANGER: Inhibition of human 786-0 cell growth in a cell viability assay.

[43] = tested on: SW1463; type: functional, cell-based, Homo sapiens; conditions: Homo sapiens, SW1463;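 further: growth inhibition of SW1463 cells, determined with a cell viability assay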
Description: SANGER: Inhibition of human SW1463 cell growth in a cell viability assay.

[44] = tested on: LK-2; type: functional, cell-based, Homo sapiens; conditions: Homo sapiens, LK-2;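 further: growth inhibition of LK-2 cells, read out with a viability assay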
Description: SANGER: Inhibition of human LK-2 cell growth in a cell viability assay.

[45] = tested on: 5637; type: functional, cell-based, Homo sapiens; conditions: Homo sapiens
Description: SANGER: Inhibition of human 5637 cell growth in a cell viability assay.

[46] = tested on: RMG-I; type: functional, cell-based, Homo sapiens; conditions: Homo sapiens, RMG-I;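 further: growth inhibition of human RMG-I cells, read out with a cell viability assay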
Description: SANGER: Inhibition of human RMG-I cell growth in a cell viability assay.

[47] = tested on: SiHa; type: functional, cell-based, Homo sapiens; conditions: Homo sapiens, SiHa;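 further: Viability-based readout of growth inhibition in SiHa cells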
Description: SANGER: Inhibition of human SiHa cell growth in a cell viability assay.

[48] = tested on: MFH-ino; type: functional, cell-based; conditions: Homo sapiens;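 further: growth inhibition of human MFH-ino cells, read out by a cell viability assay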
Description: SANGER: Inhibition of human MFH-ino cell growth in a cell viability assay.

[49] = tested on: CHL-1; type: functional, cell-based, Homo sapiens; conditions: Homo sapiens, CHL-1;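 further: cell growth inhibition, read out with a cell viability assay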
Description: SANGER: Inhibition of human CHL-1 cell growth in a cell viability assay.

[50] = tested on: NCI-H446; type: functional, cell-based; conditions: Homo sapiens;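 further: growth inhibition of NCI-H446 cells determined by a cell viability assay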
Description: SANGER: Inhibition of human NCI-H446 cell growth in a cell viability assay.

[51] = tested on: EGI-1; type: functional, cell-based, Homo sapiens; conditions: Homo sapiens, EGI-1;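 further: cell viability readout used to gauge growth inhibition of EGI-1 cells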
Description: SANGER: Inhibition of human EGI-1 cell growth in a cell viability assay.

[52] = tested on: MC-IXC; type: functional, cell-based, Homo sapiens; conditions: Homo sapiens, MC-IXC;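 further: growth inhibition of MC-IXC cells, read out with a cell viability assay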
Description: SANGER: Inhibition of human MC-IXC cell growth in a cell viability assay.

SMILES: COC(=O)CNC(=O)C(=O)OC
- IC50 [1]: 188 µM
- IC50 [2]: 1260 µM
- IC50 [3]: 178 µM
- IC50 [4]: 289 µM
- IC50 [5]: 167 µM
- IC50 [6]: 642 µM
- IC50 [7]: 57.6 µM
- IC50 [8]: 57.7 µM
- IC50 [9]: > 4000 µM
- IC50 [10]: 2280 µM
- IC50 [11]: 893 µM
- IC50 [12]: 710 µM
- IC50 [13]: 305 µM
- IC50 [14]: > 4000 µM
- IC50 [15]: > 4000 µM
- IC50 [16]: 977 µM
- IC50 [17]: 331 µM
- IC50 [18]: > 4000 µM
- IC50 [19]: 2930 µM
- IC50 [20]: 62 µM
- IC50 [21]: > 4000 µM
- IC50 [22]: 1260 µM
- IC50 [23]: 541 µM
- IC50 [24]: > 4000 µM
- IC50 [25]: > 4000 µM
- IC50 [26]: 951 µM
- IC50 [27]: 96.2 µM
- IC50 [28]: 2360 µM
- IC50 [29]: 1010 µM
- IC50 [30]: > 4000 µM
- IC50 [31]: 406 µM
- IC50 [32]: 1050 µM
- IC50 [33]: 237 µM
- IC50 [34]: > 4000 µM
- IC50 [35]: 122 µM
- IC50 [36]: 265 µM
- IC50 [37]: 2370 µM
- IC50 [38]: 120 µM
- IC50 [39]: 2570 µM
- IC50 [40]: 489 µM
- IC50 [41]: 593 µM
- IC50 [42]: > 4000 µM
- IC50 [43]: 1780 µM
- IC50 [44]: > 4000 µM
- IC50 [45]: 857 µM
- IC50 [46]: 820 µM
- IC50 [47]: 1180 µM
- IC50 [48]: 644 µM
- IC50 [49]: 917 µM
- IC50 [50]: 646 µM
- IC50 [51]: 329 µM
- IC50 [52]: 96.7 µM
